One assay concerns Saksenaea sp. The assay is described as follows: MIC against filamentous and dimorphic fungi, CLSI M27 & M38 (Table 3). Type of assay: cell-based, Saksenaea species. Conditions: 24-72 hours, read-out: Minimum inhibitory concentration 100%.
For the next assay, the system named is P. variatii. The description is as above. Type of assay: cell-based, Paecilomyces variotii. The settings on record: Paecilomyces variotii, P. variatii MYA-3630, RPMI 0.165M MOPS, 24-72 hours, read-out: Minimum inhibitory concentration 100%.
The test system of another assay is Apaphysomyces. Kind of assay: MIC against various species, CLSI M27 & M38 (Table 4). Type of assay: cell-based, Apophysomyces. Conditions: 24-72 hours, read-out: Minimum inhibitory concentration 100%.
The test system of a further assay is Rhizopus arrhizus. The assay is described as follows: MIC against filamentous and dimorphic fungi, CLSI M27 & M38 (Table 3). Type of assay: cell-based. The settings on record: Rhizopus arrhizus, 24-72 hours, read-out: Minimum inhibitory concentration 100%.
In another assay the test system is P. variotil. Kind of assay: MIC against various species, CLSI M27 & M38 (Table 4). Type of assay: cell-based, Paecilomyces variotii. Conditions: Paecilomyces variotii, P. variotil QC, RPMI 0.165M MOPS, 24-72 hours, read-out: Minimum inhibitory concentration 100%.
Assay [1] deals with S. aureus (ATCC 43300) MRSA. Type of assay: cell-based.
In the next assay the test system is Candida albicans MYA2876. The assay is described as follows: MIC against fungal strains (Table 1). Type of assay: cell-based. The settings on record: Candida albicans MYA2876.
For the next assay, the system named is Candida albicans 64124. The assay is described as follows: MIC against fungal strains (Table 1). Type of assay: cell-based.
The subject of assay [2] is Cryptococcus neoformans H99. The assay is described as follows: MIC against fungal strains (Table 1). Type of assay: cell-based. Conditions: Cryptococcus neoformans H99.
A further assay deals with Rhodotorula pilimanae. The assay is described as follows: MIC against fungal strains (Table 1). In kind it is cell-based.
For assay [3], the system named is S. aureus (ATCC 33591) MRSA. In kind it is cell-based.
Another assay relates to S. aureus (ATCC 25923). Kind of assay: MIC against bacterial strains. Type of assay: cell-based.
For the next assay, the system named is E. coli (25922). Kind of assay: MIC against bacterial strains. In kind it is cell-based.
Assay [4] deals with Fusarium graminearum B4-5A. Kind of assay: microbe, parasite or virus in culture. Type of assay: cell-based. The settings on record: Fusarium graminearum B4-5A.

In brackets after ≈: the same amount, converted by molar mass. Like-named read-outs stand apart in the source and are kept apart here.

`CC[C@@H]([C@H](C)O)n1ncn(-c2ccc(N3CCN(c4ccc(OC[C@@H]5CO[C@@](Cn6cncn6)(c6ccc(F)cc6F)C5)cc4)CC3)cc2)c1=O` [Posaconazole, reference compound]: the MIC was not above 0.03 µg/mL with Saksenaea sp. (Saksenaea sp. SK1, RPMI 0.165M MOPS); not above 0.03 µg/mL in the assay on Saksenaea sp. (Saksenaea sp. SK2, RPMI 0.165M MOPS); 0.125 µg/mL (≈ 0.178 µM) with Saksenaea sp. (Saksenaea sp. SK3, RPMI 0.165M MOPS); not above 0.03 µg/mL in the assay with P. variatii; 0.125 µg/mL (≈ 0.178 µM) in the assay on Apaphysomyces (Apaphysomyces APO1, RPMI 0.165M MOPS); 0.125 µg/mL (≈ 0.178 µM) in the assay on Apaphysomyces (Apaphysomyces APO2, RPMI 0.165M MOPS). The MIC with Apaphysomyces (Apaphysomyces APO3, RPMI 0.165M MOPS) is 0.25 µg/mL (≈ 0.357 µM); in the assay with Rhizopus arrhizus (Rhizopus arrhizus 99-880, RPMI 0.165M MOPS), 1 µg/mL (≈ 1.43 µM); with Rhizopus arrhizus (Rhizopus arrhizus 99-892, RPMI 0.165M MOPS) it was 0.25 µg/mL (≈ 0.357 µM); in the assay on Rhizopus arrhizus (Rhizopus arrhizus RA1, RPMI 0.165M MOPS), 0.25 µg/mL (≈ 0.357 µM); in the assay with P. variotil, not above 0.03 µg/mL.
`CCCCCCCCCCCCCC(=O)NCC1O[C@H](OC2C(N)CC(N)C(OC3O[C@H](CO)C(O)C(N)[C@H]3O)[C@H]2O)C(O)C(O)[C@@H]1O` (stereo partly drawn) [KI05]: the Minimum inhibitory concentration in assay [1] was 32 µg/mL (≈ 46.1 µM); in the assay with Candida albicans MYA2876 it was 16 µg/mL (≈ 23 µM); in the assay with Candida albicans 64124 it was 16 µg/mL (≈ 23 µM); in [2], 4 µg/mL (≈ 5.76 µM); with Rhodotorula pilimanae, 4 µg/mL (≈ 5.76 µM); in [3], 32 µg/mL (≈ 46.1 µM). Further, the Minimum inhibitory concentration in the assay with S. aureus (ATCC 25923) came to 16 µg/mL (≈ 23 µM); in the assay with E. coli (25922) it was 64 µg/mL (≈ 92.1 µM); in assay [4] it was 8 µg/mL (≈ 11.5 µM).
As for `CCCCCCCCCCCC(=O)NC[C@H]1O[C@H](O[C@H]2[C@H](O)[C@@H](O[C@H]3O[C@H](CO)[C@@H](O)[C@H](N)[C@H]3O)[C@H](N)C[C@@H]2N)[C@H](O)[C@@H](O)[C@@H]1O` [KI04], the Minimum inhibitory concentration in assay [1] was determined as 128 µg/mL (≈ 192 µM); in the assay on Candida albicans MYA2876 it was 32 µg/mL (≈ 48 µM); with Candida albicans 64124, 32 µg/mL (≈ 48 µM); in assay [2], 8 µg/mL (≈ 12 µM); in the assay on Rhodotorula pilimanae it was 16 µg/mL (≈ 24 µM); in assay [3], 128 µg/mL (≈ 192 µM). For the same compound, the Minimum inhibitory concentration in the assay on S. aureus (ATCC 25923) stood at 32 µg/mL (≈ 48 µM); in the assay on E. coli (25922), 32 µg/mL (≈ 48 µM); in [4], 16 µg/mL (≈ 24 µM).
Regarding `N[C@@H]1[C@@H](O)[C@@H](O[C@@H]2[C@@H](O)[C@H](O[C@H]3O[C@H](CNC(=O)c4cc(-c5ccccc5)nc5ccccc45)[C@@H](O)[C@H](O)[C@H]3O)[C@@H](N)C[C@H]2N)O[C@H](CO)[C@H]1O` [KI08], the Minimum inhibitory concentration was more than 256 µg/mL in the assay with Candida albicans MYA2876; more than 256 µg/mL in the assay with Candida albicans 64124; 128 µg/mL (≈ 179 µM) in assay [2]; 256 µg/mL (≈ 358 µM) in the assay on Rhodotorula pilimanae; more than 256 µg/mL with S. aureus (ATCC 25923); more than 256 µg/mL in the assay with E. coli (25922). In assay [4], the Minimum inhibitory concentration is more than 256 µg/mL.
Neomycin [reference compound]: the Minimum inhibitory concentration in the assay with S. aureus (ATCC 25923) and in the assay on E. coli (25922) was 2 µg/mL each time.
On to `CCCCCCCC(=O)NCC1O[C@H](OC2C(N)CC(N)C(OC3O[C@H](CO)C(O)C(N)[C@H]3O)[C@H]2O)C(O)C(O)[C@@H]1O` (stereo partly drawn) [KI02], for which the Minimum inhibitory concentration (in the assay with Candida albicans MYA2876; in the assay on Candida albicans 64124; in assay [2]; in the assay on Rhodotorula pilimanae; in the assay on S. aureus (ATCC 25923); with E. coli (25922)) was more than 256 µg/mL throughout. In assay [4], this compound displayed a Minimum inhibitory concentration of more than 256 µg/mL.
For `NC1CC(N)C(O[C@H]2OC(CNC(=O)CCCc3ccc4ccc5cccc6ccc3c4c56)[C@@H](O)C(O)C2O)[C@H](O)C1OC1O[C@H](CO)C(O)C(N)[C@H]1O` (stereo partly drawn) [KI09], the Minimum inhibitory concentration in assay [1] is 32 µg/mL (≈ 42.4 µM); in the assay with Candida albicans MYA2876, 16 µg/mL (≈ 21.2 µM); with Candida albicans 64124 it was 16 µg/mL (≈ 21.2 µM); in [2], 16 µg/mL (≈ 21.2 µM); in the assay on Rhodotorula pilimanae it was 16 µg/mL (≈ 21.2 µM); in assay [3], 128 µg/mL (≈ 170 µM). Moreover, the results for the Minimum inhibitory concentration (in the assay on S. aureus (ATCC 25923); in the assay on E. coli (25922); in [4]) were 32 µg/mL (≈ 42.4 µM), 128 µg/mL (≈ 170 µM) and 16 µg/mL (≈ 21.2 µM), respectively.

The values above are taken from patent publication US20210230203A1, “Amphiphilic Kanamycin Compositions and Methods” (priority 2020, published 2021).
